Data set [1] concerns the target T1, hα7-wt nAChR (Homo sapiens, UniProt P36544). Kind of data set: Ca2+ flux imaging (FDSS): potentiation of the choline response. Type of data set: cell-based. The conditions noted are these: Ca2+ assay as described in D.1; potentiation of choline response, hα7-wt nAChR; read-out: Potency (pEC50) (converted). The gist of the method:
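Cells expressing human α7-wt nAChR loaded with fluo-4AM (2 μM final) up to 120 min; HBSS/10 mM HEPES/5 mM CaCl2/0.1% BSA buffer. Compound (0.01–30 μM) applied up to 10 min before 100 μM choline; peak fluorescence measured on FDSS relative to choline alone (100%). EC50 from sigmoidal curves.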

Data set [2] addresses T1, hα7-wt nAChR. The data set is described as follows: Patch-clamp current recording (whole-cell voltage clamp), potentiation of choline current and PAM type. It is filed as cell-based. Details: key: Type 0 compounds minimally enhance the effect size of the current elicited by 1 mM choline.; Type 1 compounds enhance the effect size of the current elicited by 1 mM choline but minimally alter the kinetics of the receptor.; Type 2 compounds enhance the effect size of the current elicited by 1 mM choline while reducing the rate and/or the extent of desensitization.; Type 3 compounds enhance the effect size of the current elicited by 1 mM choline. When tested at higher concentrations up to 10 μM they completely inhibit desensitization, in particular a 1 mM choline application of 250 milliseconds.; Type 4 compounds allow for an initial desensitization of the receptor followed by a re-opening of the receptor during agonist application. The note with it: hα7-wt nAChR-expressing GH4C1 cells, 1 mM choline. A digest of the protocol:
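GH4C1 cells stably expressing human wild-type α7 nAChR, whole-cell voltage clamp at −70 mV with rapid application (<100 ms); compound co-applied with 1 mM choline. Peak current potentiation expressed relative to choline-alone response (=100%); compounds reaching ≥200% assigned PAM type 0–4 by current kinetics and desensitization.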

T1 sequence (P36544 23-502): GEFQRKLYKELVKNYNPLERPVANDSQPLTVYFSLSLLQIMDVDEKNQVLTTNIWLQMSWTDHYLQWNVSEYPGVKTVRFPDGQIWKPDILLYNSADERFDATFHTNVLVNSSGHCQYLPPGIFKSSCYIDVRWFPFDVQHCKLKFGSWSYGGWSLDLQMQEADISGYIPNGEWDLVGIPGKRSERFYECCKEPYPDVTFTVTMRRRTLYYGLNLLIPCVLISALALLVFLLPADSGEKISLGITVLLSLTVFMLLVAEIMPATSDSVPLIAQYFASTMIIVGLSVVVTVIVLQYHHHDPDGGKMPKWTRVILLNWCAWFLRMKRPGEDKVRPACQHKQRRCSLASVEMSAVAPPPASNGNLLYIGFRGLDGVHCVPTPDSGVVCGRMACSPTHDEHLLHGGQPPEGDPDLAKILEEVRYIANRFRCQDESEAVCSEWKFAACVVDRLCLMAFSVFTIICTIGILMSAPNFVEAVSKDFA

In the case of `Cc1cc(-n2nc(Nc3ccc4c(c3)OC(F)(F)O4)cc2CC(=O)NCC2CC2)ccn1` [Compound 101, N-(cyclopropylmethyl)-3-[(2,2-difluoro-1,3-benzodioxol-5-yl)amino]-1-(2-methyl-4-pyridinyl)-1H-pyrazole-5-acetamide], the melting point was 232.3 °C. On hα7-wt nAChR [1], the EC50 was 603 nM. Further, the PAM type on hα7-wt nAChR [2] was determined as 2.

For the molecule `COc1cc(Cl)cc(Nc2cc(CC(=O)NC3CCC3)n(-c3ccnc(C)c3)n2)c1` [Compound 83, 3-[(3-chloro-5-methoxyphenyl)amino]-N-cyclobutyl-1-(2-methyl-4-pyridinyl)-1H-pyrazole-5-acetamide], the melting point turned out to be 236.4 °C. The EC50 on hα7-wt nAChR [1] was 145 nM. Moreover, the PAM type on hα7-wt nAChR [2] worked out at 4.

`CNC(=O)Cc1cc(Nc2cc(Cl)cc(OC)c2)nn1-c1ccnc(C)c1` [Compound 72, 3-[(3-chloro-5-methoxyphenyl)amino]-N-methyl-1-(2-methyl-4-pyridinyl)-1H-pyrazole-5-acetamide] had a melting point of 215 °C. In addition, the EC50 on hα7-wt nAChR [1] is 1820 nM. Moreover, the PAM type at hα7-wt nAChR [2] turned out to be 3.

As to `CC[C@H](O)Cc1cc(Nc2ccc3c(c2)OC(F)(F)O3)nn1-c1ccnc(C)c1` [Compound 93, (alphaS)-3-[(2,2-difluoro-1,3-benzodioxol-5-yl)amino]-alpha-ethyl-1-(2-methyl-4-pyridinyl)-1H-pyrazole-5-ethanol], the melting point amounted to 138.3 °C. For the same molecule, the EC50 on hα7-wt nAChR [1] was 1700 nM. Moreover, on hα7-wt nAChR [2], the PAM type amounted to 2.
